The values below are quoted from earlier work in patent US12193471B2, “Aerosolizable formulation” (NICOVENTURES TRADING LIMITED, priority 2018, dated 2025).

For the data set the following is noted: compared to base cyclodextrins such as β-cyclodextrin.

In the case of 2-hydroxy-propyl-β-cyclodextrin, the solubility in water result is recorded as “increased solubility in water”.
